Target: T1, HDAC8 (histone deacetylase 8) (Homo sapiens, UniProt Q9BY41)
T1 sequence (Q9BY41 1-377): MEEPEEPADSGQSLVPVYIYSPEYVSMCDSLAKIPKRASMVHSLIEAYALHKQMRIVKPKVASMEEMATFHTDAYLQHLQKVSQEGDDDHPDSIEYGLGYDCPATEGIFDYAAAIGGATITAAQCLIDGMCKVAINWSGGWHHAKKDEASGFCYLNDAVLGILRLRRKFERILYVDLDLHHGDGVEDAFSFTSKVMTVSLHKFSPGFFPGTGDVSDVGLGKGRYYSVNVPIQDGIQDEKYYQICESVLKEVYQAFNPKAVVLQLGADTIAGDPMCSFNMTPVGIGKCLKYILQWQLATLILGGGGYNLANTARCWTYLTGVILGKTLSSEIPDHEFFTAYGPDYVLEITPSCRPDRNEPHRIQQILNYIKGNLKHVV
Test: Fluor de Lys fluorogenic deacetylase inhibition assay with AcRHKK
Assay type: biochemical

| Compound | Ki |
| --- | --- |
| CCCCCCCCCC(=O)O [Decanoic acid] | 4.48 ± 0.221 mM |
| CCCCCC(=O)O [Hexanoic acid] | 2.35 ± 0.341 mM |

— PMC8669121 (Epigenetics Insights, 2021)
